Results: US9556235B2, “F11 receptor (F11R) antagonists as therapeutic agents” (The Research Foundation for The State University of New York, priority 2003, dated 2017)
Entries after “also recorded” stand apart in the source; their conditions may differ.

What was measured:
[1] = test system: human platelets; assay: Potentiation by M.Ab.F11 of collagen-induced platelet aggregation; assay type: cell-based
Experimental: (§1) Whole blood was collected into the anticoagulant ACD (pH 4.6), as detailed (Kornecki et al. (1990) J. Biol. Chem., 265:10042-10048, incorporated herein by reference). Platelets were washed and isolated by differential centrifugation, and resuspended in a Tyrode-albumin (0.35%) solution buffered with 11.9 mM sodium bicarbonate (pH 7.35) in the presence of apyrase, heparin, and PGE1 (Id.). […] Platelet aggregation was measured in a Chronolog Whole Blood Lumi-Aggregometer (Chronolog Corp. Havertown, Pa.). […] The lowest concentration of each agonist which caused platelet aggregation was determined in these experiments for each donor on the day of blood collection.
However, the addition of sub-threshold amounts of collagen and M.Ab.F11 triggered a full-blown platelet aggregation.

[2] = test system: human platelets; assay: Potentiation by M.Ab.F11 of ADP-induced platelet aggregation (sub-threshold M.Ab.F11 plus ADP); assay type: cell-based; settings: for inhibition of M.Ab.F11 plus ADP-induced platelet aggregation: M.Ab.F11 0.3 μg/ml, ADP 0.5 μM
Experimental: as §1
Synthetic peptides according to published sequences of F11R were prepared.

[3] = test system: platelets; assay: Platelet adhesion to immobilized M.Ab.F11 (BCA protein assay); assay type: cell-based, human; settings: for inhibition of the adhesion of platelets to immobilized M.Ab.F11: M.Ab.F11 150 ng/well; for inhibition in platelet adhesion assay (immobilized M.Ab.F11): FIG. 3 legend, concentration not given
Experimental: An adhesion assay, based on the determination of cell-derived protein using Bicinchoninic Acid (BCA) protein assay (Tuszynski et al. (1990) Anal. Biochem 184:189-191, incorporated herein by reference), was used for platelet adhesion to immobilized M.Ab.F11. Wells of a 96-well plate (Nunc-Immuno™ Plate, MaxiSorp™ Surface, flat bottomed) were incubated overnight at 4° C. with […] of a 1 mg/ml solution of M.Ab.F11. Wells were aspirated, washed, treated with TBS/1% BSA for 1 h at 37° C., and washed with TBS/0.1 mM MnCl2/0.1 mM CaCl2. Isolated platelet suspensions (100 μl) (3×10^8/ml) were added and plates were incubated at 37° C. for 90 min. Total platelet-associated protein was determined by dissolving the attached platelets directly with 100 μl BCA. Platelets were incubated at 37° C. for 2 h, and absorbance (595 nm) determined (Dynatech Laboratories, Chantilly, Va.).
The five peptides with sequences shown in Table 1 were tested also for their effects on the adhesion of platelets to immobilized M.Ab.F11 (applied at a concentration of 150 ng/well). […] Peptide 1 (SEQ ID NO: 1), added at 50 μM caused about 60% inhibition of the adhesion of platelets to immobilized M.Ab.F11, and with 500 μM of peptide 1 (SEQ ID NO: 1), about 70% inhibition was observed. Peptide 4 (SEQ ID NO: 4), at 50 μM, produced very little (10%) inhibition compared to peptide 1 (SEQ ID NO: 1) at similar concentrations. However, 500 μM of peptide 4 (SEQ ID NO: 4) produced approximately 70% inhibition in the adhesion of platelets to M.Ab.F11, similar to that observed with peptide 1 (SEQ ID NO: 1) at the same concentration.

[4] = test system: apoE KO mice; assay: Plaque formation in animal model of atherosclerosis (apoE KO mice); assay type: in vivo; settings: for physical appearance of the animals (secondary consequences of atherosclerosis): 5 month period, Western-type diet, FIG. 7
Experimental: The results of an in-vivo study of the effects of F11R peptide 4D on plaque formation in an animal model of atherosclerosis (apoE knockout/KO mice) are discussed below. The atherosclerosis-prone apoE KO is a strain of mice that has been genetically engineered to develop cardiovascular disease. This genetic abnormality is manifested by the continuous development of atherosclerotic plaques from early age to adulthood, accompanied by deteriorating, sickly appearance.
The study was conducted on atherosclerosis prone apoE deficient (knock-out female mice of 6 weeks of age) of a C57BL/6 background. The mice were obtained from the Jackson Laboratory (Bar Harbor, Me.). Seven animals were injected daily with peptide 4D. In parallel, control groups, consisting of animals injected with water, the vehicle used to deliver peptide 4D, was maintained. All mice were fed a Western-type diet.
At pre-determined intervals of 3, 4 and 5 months of treatment, the aortae were dissected. Following the dissection of the aortae of all mice, morphometric analyses of lesion areas was performed on aortic arch sections stained with Harris hematoxylin-eosin. The total intimal lesion areas were quantified by taking the average of 6 sections spaced 30 μm apart, beginning at the base of the aortic root of each animal. Images were viewed and captured with a microscope (Nikon) equipped with a color video camera (Motic Images Plus 2.0) attached to a computerized imaging system with Image-J.
En face assays (to visualize the entire aorta) were conducted for comparison of the size and number of atherosclerotic plaques in treated and untreated animals using an Oil red O staining procedure, as shown in FIG. 9. […] FIG. 9B illustrates the differences in the number and size of plaques in animals following a 4-month period of injection with peptide 4D, comparing animals “P4, P5” treated with peptide 4D versus controls “H3, H4, H5”.
The proximal aortae of treated an untreated groups were also assessed by hematoxylin-eosin staining of the proximal aorta (root assay) for the size of the lesions/plaques and the necrotic core area within the proximal aorta. FIG. 10A illustrates the plaques and the size of the necrotic core area of animals treated or not treated with peptide 4D for a 3 month period.

[5] = test system: human platelets; assay: M.Ab.F11-induced platelet aggregation; assay type: cell-based; settings: sF11R 1 μg/ml; M.Ab.F11 2.45 μg/ml; FIG. 1A
Experimental: as §1
The soluble polypeptide sF11R was tested in the platelet aggregation assay to determine its effect on the rate and extent of platelet aggregation.
The F11R/JAM-A receptor is constitutively expressed on the surface membrane of human platelets. Studies were carried out testing the effects of Fab fragments prepared from M.Ab.F11, i.e., on the M.Ab.F11-induced platelet aggregation that is triggered by M.Ab.F11 binding to F11R. It was determined that these Fab fragments interfered with the ability of the intact M.Ab.F11 antibody to activate platelets through the constitutively-expressed F11R.
As shown below, platelet aggregation was assayed in the presence of either 0.1 μg/ml (FIG. 4a), or 1.0 μg/ml (FIG. 4b). […]

[6] = collagen 0.5 μg/ml (sub-threshold), peptide concentration not given
[7] = peptide approximately 50-500 μM

For “EQDGSPPSEYTWFKD [peptide 5, F11R amino acids 128-142, control peptide]”, the “block of potentiation by M.Ab.F11 of collagen-induced platelet aggregation” value (“block … of collagen-induced platelet aggregation” for short) [1, 6] was “did not inhibit platelet aggregation”, the “inhibition of M.Ab.F11 plus ADP-induced platelet aggregation” value [2, 7] was “no inhibitory effects” and the “inhibition of M.Ab.F11 plus ADP-induced platelet aggregation” value ([2]; peptide approximately 50-500 μM, listed as SEQ ID NO: 5) was “do not inhibit aggregation”. The “inhibition of the adhesion of platelets to immobilized M.Ab.F11” value (shortened to “inhibition of the adhesion of platelets”) ([3]; peptide 500 μM) was “did not cause significant inhibition”.

With KSVTREDTGTYTC [peptide 4] the “block … of collagen-induced platelet aggregation” value [1, 6] was “completely blocked”, the “inhibition of M.Ab.F11 plus ADP-induced platelet aggregation” value ([2]; peptide approximately 50 μM) was “completely block” and the “inhibition of M.Ab.F11 plus ADP-induced platelet aggregation” value ([2]; peptide approximately 50 μM, listed as Peptide 4) was “completely inhibited aggregation”. The “inhibition in platelet adhesion assay (immobilized M.Ab.F11)” value [3] was “inhibition”, the “inhibition of the adhesion of platelets” value ([3]; peptide 50 μM) was 10% and the “inhibition of the adhesion of platelets” value ([3]; peptide 500 μM) was “about 70%”.

With “SVTVHSSEPEVRIPENNPVKLSC [peptide 1, N-terminal peptide of F11R, amino acids 1-23]” the “block … of collagen-induced platelet aggregation” value [1, 6] was “completely blocked”, the “inhibition of M.Ab.F11 plus ADP-induced platelet aggregation” value ([2]; peptide approximately 50 μM) was “completely inhibited” and the “inhibition of M.Ab.F11 plus ADP-induced platelet aggregation” value ([2]; peptide approximately 50 μM, listed as Peptide 1) was “completely inhibited platelet aggregation”. The “persistence of inhibition of M.Ab.F11 plus ADP-induced platelet aggregation” value ([2]; peptide approximately 50 μM, examined after a 12 h period) was “aggregation did not ensue”, the “inhibition in platelet adhesion assay (immobilized M.Ab.F11)” value [3] was “inhibition” and the “inhibition of the adhesion of platelets” value ([3]; peptide 50 μM) was “about 60%”. For the same molecule, the “inhibition of the adhesion of platelets” value ([3]; peptide 500 μM) was “about 70%”.

For “SYEDRVTFLPTGITFKSVTRED [peptide 2, F11R amino acids 55-76, control peptide]”, the “inhibition of M.Ab.F11 plus ADP-induced platelet aggregation” value [2, 7] was “no inhibitory effects”, the “inhibition of M.Ab.F11 plus ADP-induced platelet aggregation” value ([2]; peptide approximately 50-500 μM, listed as SEQ ID NO: 2) was “do not inhibit aggregation” and the “inhibition of the adhesion of platelets” value ([3]; peptide 500 μM) was “did not cause significant inhibition”.

In the case of “WKFDQGDTTRLVEYNNKITASY [peptide 3, F11R amino acids 35-56, control peptide]”, the “block … of collagen-induced platelet aggregation” value [1, 6] is reported as “did not inhibit platelet aggregation”, the “inhibition of M.Ab.F11 plus ADP-induced platelet aggregation” value [2, 7] is reported as “no inhibitory effects” and the “inhibition of M.Ab.F11 plus ADP-induced platelet aggregation” value ([2]; peptide approximately 50-500 μM, listed as SEQ ID NO: 3) is reported as “do not inhibit aggregation”. The “inhibition of the adhesion of platelets” value ([3]; peptide 500 μM) was “did not cause significant inhibition”.

With dKSVTdREDTGTYTC-CONH2 [peptide 4D] the “size of the atherosclerotic plaques, en face assay (entire aorta, Oil red O)” value ([4]; 3, 4 and 5 month period of injection, FIG. 9D) was “decrease in the size of the atherosclerotic plaques”, the “size of the plaque/lesion areas, proximal aorta” value ([4]; 3, 4 and 5 months of injections) was “significant decreases” and the “size of the necrosis core area (NE) within the lesion” value ([4]; 3 month period of injection, FIG. 10C) was “significant decrease”. The “physical appearance of the animals (secondary consequences of atherosclerosis)” value ([4]; apoE KO mice, daily injection) was “prevented the degeneration of the animal's appearance”, the “physical appearance of the animals (secondary consequences of atherosclerosis)” value ([4]; apoE KO mice, daily injection, listed as F11R peptide 4D) was “diminishes the secondary consequences” and the “loss of hair, itching/scratching and lesions on the skin” value ([4]; apoE KO mice, daily injection, FIG. 7C-F) was “not observed”. For the same molecule, the “rate and extent of atherosclerotic plaque formation in major arterial blood vessels” value ([4]; apoE KO mice, summary of FIGS. 8-10) was “significantly decreases”, the “size of atherosclerotic plaques in the aortic arch” value ([4]; three, four and five months of injection, hematoxylin-eosin sections, FIG. 8) was “beneficial effects” and the “size of the lesion area, proximal aorta (root assay)” value ([4]; treated for 3 months, *P<0.05, FIG. 10B) was “significant decrease”.

B1: sF11R: secreted recombinant F11R, extracellular portion (amino acids ser-1 to asn-208), His tag, from COS-7 cells (protein)
chain: SVTVHSSEPEVRIPENNPVKLSCAYSGFSSPRVEWKFDQGDTTRLVCYNNKITASYEDRVTFLPTGITFKSVTREDTGTYTCMVSEEGGNSYGEVKVKLIVLVPPSKPTVNIPSSATIGNRAVLTCSEQDGSPPSEYTWFKDGIVMPTNPKSTRAFSNSSYVLNPTTGELVFDPLSASDTGEYSCEARNGYGTPMTSNAVRMEAVERN
modifications: left off: small tags and cut ends
notes: secreted recombinant F11R, extracellular portion (amino acids ser-1 to asn-208), His tag, from COS-7 cells
B1 was tested, and the “block … of collagen-induced platelet aggregation” value ([1]; sF11R 1 μg/ml) was “completely blocked”, the “block of potentiation by M.Ab.F11 of ADP-induced platelet aggregation” value ([2]; sF11R 1 μg/ml) was “completely blocked” and the “inhibition of M.Ab.F11-induced platelet aggregation” value [5] was “effectively inhibited; also recorded: Inhibition”.
